In patent publication US9456599B2, “Adjuvants” (SYNGENTA LIMITED, priority 2012, dated 2016):

Key:
Format in all cases: in vivo
Septoria tritici [1] = test: Septoria tritici on wheat, isopyrazam with compound E (Example 8); conditions: wheat leaf area infected 12 days after spray; isopyrazam 3, 10, 30 and 100 mg/l, adjuvant 0.1% by volume; mean over four rates, four replicates
Protocol: Wheat plants were inoculated with the fungus Septoria tritici. Four days after inoculation the plants were sprayed with a diluted suspension concentrate formulation of the fungicide isopyrazam at rates of 3, 10, 30 and 100 mg of the fungicide per liter of spray solution, using a laboratory track sprayer which delivered the spray at a rate of 200 liters per hectare. Spray tests were also carried out with a diluted suspension concentrate additionally comprising the carbonate compound E (see Table 7) added to the spray solution at a rate of 0.1% v/v, based on the quantity of spray liquor. The leaves of the plants were assessed visually 12 days after the spray application and the damage was expressed as the percentage of the leaf area infected. Each spray test was replicated four times across the four application rates.
The results shown in Table 13 below are mean averages over the four rates of isopyrazam and the four replicates, and are compared to the efficacy of isopyrazam in the absence of an adjuvant, and isopyrazam in the presence of oleyl ethoxylate 20EO butyl end capped adjuvant used as a standard adjuvant for comparative purposes (at 0.1% by volume).

Septoria tritici [2] = test: Septoria tritici on wheat, isopyrazam with B92-P-/B96-P-carbonate (Example 10); conditions: wheat leaf area infected 14 days after spray; isopyrazam 3, 10, 30 and 100 mg/l, adjuvant 0.1% by volume; mean over four rates, twelve replicates
Protocol: Wheat plants were inoculated with the fungus Septoria tritici. Four days after inoculation the plants were sprayed with a diluted suspension concentrate formulation of the fungicide isopyrazam at rates of 3, 10, 30 and 100 mg of the fungicide per liter of spray solution, using a laboratory track sprayer which delivered the spray at a rate of 200 liters per hectare. Spray tests were also carried out with diluted suspension concentrates additionally comprising the carbonates B92-P-carbonate and B96-P-carbonate (see Table 1) which were added to the spray solution at a rate of 0.1% v/v, based on the quantity of spray liquor. The leaves of the plants were assessed visually 14 days after the spray application and the damage was expressed as the percentage of the leaf area infected. Each spray test was replicated twelve times across the four application rates.
The results shown in Table 15 below are mean averages over the four rates of isopyrazam and the twelve replicates, and are compared to the efficacy of isopyrazam in the absence of an adjuvant, and isopyrazam in the presence of oleyl ethoxylate 20EO butyl end capped which was used as a standard for comparative purposes (at 0.1% by volume).

Brachiaria plantaginea = test: Glasshouse post-emergence spray test, mesotrione with adjuvant (Example 3); conditions: mesotrione 30 or 60 g/ha, carbonate 0.2% or 0.5% Tween 20 + Rhodasurf DA/630-E; mean over two rates, three replicates, 14 and 21 days
Protocol: (§1) Brachiaria plantaginea, Digitaria sanguinalis, Commelina benghalensis and Polygonum convulvulus seeds were sown into standard soil in pots and cultivated under controlled conditions in a glasshouse (at 24/18° C. day/night; 16 hours light; 65% humidity).
(§2) When the plants were at the vegetative stage of 2-4 leaves they were sprayed with an aqueous spray solution containing the herbicide mesotrione and 0.2% v/v of one of the carbonates B92-P-Carbonate, B92-B-Carbonate and B96-P-Carbonate (see Table 1).
(§3) The spray solution was applied with a cabinet tracksprayer with a flat fan nozzle (Teejet 11002VS) and an application volume of 200 liter/ha (at 2 bar). Mesotrione was applied at either 30 or 60 grams of pesticide per hectare.
(§4) The test plants were then grown on, in a glasshouse under controlled conditions (at 24/18° C. day/night; 16 hours light; 65% humidity) and watered twice a day. After 14 and 21 days the test was evaluated for general crop injury (100% equals total damage to a plant; 0% equals no damage to a plant).
(§5) The results shown in Table 5 below are mean averages over the two rates of mesotrione, three replicates and the two assessment timings, and are compared to the efficacy of mesotrione in the absence of an adjuvant, and mesotrione in the presence of the commercially available tank-mix adjuvant, Tween 20 ®+Rhodasurf DA/630-E® (2:1 in water).

Commelina benghalensis = test: as above; conditions: mesotrione 30 or 60 g/ha, carbonate 0.2% or 0.5% Tween 20 + Rhodasurf DA/630-E; mean over two rates, three replicates, 14 and 21 days
Protocol: as §1, §2, §3, §4, §5

Digitaria sanguinalis = test: as above; conditions: mesotrione 30 or 60 g/ha, carbonate 0.2% or 0.5% Tween 20 + Rhodasurf DA/630-E; mean over two rates, three replicates, 14 and 21 days
Protocol: as §1, §2, §3, §4, §5

Polygonum convulvulus = test: as above; conditions: mesotrione 30 or 60 g/ha, carbonate 0.2% or 0.5% Tween 20 + Rhodasurf DA/630-E; mean over two rates, three replicates, 14 and 21 days
Protocol: as §1, §2, §3, §4, §5

[3] = tested on: Brachiaria plantaginea, Digitaria sanguinalis, Commelina benghalensis and Polygonum convulvulus; test: Glasshouse post-emergence spray test, mesotrione with adjuvant (Example 3), mean across species; conditions: mesotrione 30 or 60 g/ha, carbonate 0.2% or 0.5% Tween 20 + Rhodasurf DA/630-E; 14 and 21 days; Tukey HSD letter
Protocol: as §1, §2, §3, §4, §5

[4] = tested on: Brachiaria plantaginea, Digitaria sanguinalis, Commelina benghalensis and Polygonum convulvulus; test: Glasshouse spray test, mesotrione with carbonates A-D (Example 6), mean over four plant species; conditions: Table 10: mesotrione 30 or 60 g/ha, compounds A-D 0.2%, Tween + Rhodasurf 0.5%; 25 days; mean over rates, replicates, four species
Protocol: as §1
When the plants were at the vegetative stage of 2-4 leaves they were sprayed with an aqueous spray solution containing the herbicide mesotrione and 0.2% v/v of one of the carbonates A, B, C and D (see Table 7).
as §3
The test plants were then grown on, in a glasshouse under controlled conditions (at 24/18° C. day/night; 16 hours light; 65% humidity) and watered twice a day. After 25 days the test was evaluated for general crop injury or phytotoxicity (100% equals total damage to a plant; 0% equals no damage to a plant).
The results shown in Table 10 below are mean averages over the two rates of mesotrione, the three replicates and the four plant species and are compared to the efficacy of mesotrione in the absence of an adjuvant, and mesotrione in the presence of the commercially available tank-mix adjuvant, Tween 20 ®+Rhodasurf DA/630-E® (combined in a 2:1 ratio) at 0.5% by volume.

Alopecurus myosuroides = test: Glasshouse post-emergence spray test, pinoxaden with adjuvant (Example 4); conditions: pinoxaden 7.5 or 15 g/ha, adjuvant 0.2%; mean over two rates, three replicates, 14 and 21 days
Source text: (§6) When the plants were at the vegetative stage of 2-3 leaves they were sprayed with an aqueous spray solution containing the herbicide pinoxaden and 0.2% v/v of one of the carbonates B92-P-Carbonate, B92-B-Carbonate and B96-P-Carbonate (see Table 1).
(§7) The spray solution was applied with a cabinet tracksprayer with a flat fan nozzle (Teejet 11002VS) and an application volume of 200 liter/ha (at 2 bar). Pinoxaden was applied at either 7.5 or 15 grams of pesticide per hectare. […] After 14 and 21 days the test was evaluated for general crop injury (100% equals total damage to a plant; 0% equals no damage to a plant).

Avena fatua = test: as above; conditions: pinoxaden 7.5 or 15 g/ha, adjuvant 0.2%; mean over two rates, three replicates, 14 and 21 days
Source text: as §6, §7

Lolium perenne = test: as above; conditions: pinoxaden 7.5 or 15 g/ha, adjuvant 0.2%; mean over two rates, three replicates, 14 and 21 days
Source text: as §6, §7

Setaria viridis = test: as above; conditions: pinoxaden 7.5 or 15 g/ha, adjuvant 0.2%; mean over two rates, three replicates, 14 and 21 days
Protocol: (§8) Avena fatua, Lolium perenne, Setaria viridis and Alopecurus myosuroides seeds were sown into standard soil in pots and cultivated under controlled conditions in a glasshouse (at 20/16° C. day/night; 15 hours light; 65% humidity).
as §6
The spray solution was applied with a cabinet tracksprayer with a flat fan nozzle (Teejet 11002VS) and an application volume of 200 liter/ha (at 2 bar). Pinoxaden was applied at either 7.5 or 15 grams of pesticide per hectare. The test plants were then grown on in a glasshouse under controlled conditions (at 24/18° C. day/night; 16 hours light; 65% humidity) and watered twice a day. After 14 and 21 days the test was evaluated for general crop injury (100% equals total damage to a plant; 0% equals no damage to a plant).
The results shown in Table 6 below are mean averages over the two rates of pinoxaden, three replicates and the two assessment timings, and are compared to the efficacy of pinoxaden in the absence of an adjuvant, and pinoxaden in the presence of the tris(2-ethylhexyl)phosphate [TEHP, used as a standard, for comparative purposes] (at 0.2% by volume).

[5] = tested on: Avena fatua, Lolium perenne, Setaria viridis and Alopecurus myosuroides; test: Glasshouse post-emergence spray test, pinoxaden with adjuvant (Example 4), mean across species; conditions: pinoxaden 7.5 or 15 g/ha, adjuvant 0.2%; 14 and 21 days; Tukey HSD letter
Source text: as §6, §7

[6] = tested on: Avena fatua, Lolium perenne, Setaria viridis and Alopecurus myosuroides; test: Glasshouse spray test, pinoxaden with carbonates A-E (Example 7), mean over four plant species; conditions: 22 days, mean over rates, replicates, four species
Protocol: as §8
When the plants were at the vegetative stage of 2-3 leaves they were sprayed with an aqueous spray solution containing the herbicide pinoxaden and 0.2% v/v of one of the carbonates A, B, C, D and E (see Table 7).
The spray solution was applied with a cabinet tracksprayer with a flat fan nozzle (Teejet 11002VS) and an application volume of 200 liter/ha (at 2 bar). Pinoxaden was applied at either 7.5 or 15 grams of pesticide per hectare.
The test plants were then grown on. in a glasshouse under controlled conditions (at 24/18° C. day/night; 16 hours light; 65% humidity) and watered twice a day. After 22 days the test was evaluated for general crop injury or phytotoxicity (100% equals total damage to a plant; 0% equals no damage to a plant).
The results shown in Table 11 below are mean averages over the two rates of pinoxaden, the three replicates and the four plant species, and are compared to the efficacy of pinoxaden in the absence of an adjuvant, and pinoxaden in the presence of tris(2-ethylhexyl)phosphate, used as a standard adjuvant for comparative purposes (at 0.2% by […] volume).

## CC(C)C1C2CCC1c1c(NC(=O)c3cn(C)nc3C(F)F)cccc12 (stereo not drawn) [Isopyrazam]
Septoria tritici [1]
  Mean % infection: 65.1%
Septoria tritici [2]
  Mean % infection: 76.9%

## CS(=O)(=O)c1ccc(C(=O)C2C(=O)CCCC2=O)c([N+](=O)[O-])c1 [Mesotrione]
Brachiaria plantaginea
  Mean percentage kill BRAPL: 1.7%
Commelina benghalensis
  Mean percentage kill COMBEN: 53.3%
Digitaria sanguinalis
  Mean percentage kill DIGSA: 44.2%
Polygonum convulvulus
  Mean percentage kill POLCONV: 70.8%
[3]
  Mean percentage kill, Mean across species: 42.5 B %
[4]
  Mean % Phytotoxicity: 33.71%

## CCc1cc(C)cc(CC)c1-c1c(OC(=O)C(C)(C)C)n2n(c1=O)CCOCC2 [Pinoxaden]
Alopecurus myosuroides
  Mean percentage kill ALOPECURUS MYOSUROIDES: 0%
Avena fatua
  Mean percentage kill AVENA FATUA: 10.0%
Lolium perenne
  Mean percentage kill LOLIUM PERENNE: 1.7%
Setaria viridis
  Mean percentage kill SETARIA VIRIDIS: 0%
[5]
  Mean percentage kill, Mean across species: 2.9 C %
[6]; Table 11: pinoxaden 7.5 or 15 g/ha, compounds A-D or tris(2-ethylhexyl)phosphate 0.2% by volume
  Mean % Phytotoxicity: 4.25%
[6]; Table 12: pinoxaden 7.5 or 15 g/ha, compound E or tris(2-ethylhexyl)phosphate 0.2% by volume
  Mean % Phytotoxicity: 0%
